Data as given in ChEMBL document CHEMBL1201862, “PubChem BioAssay data set” (2004).
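All cell lines were grown in 96-well plates and treated with compound for 48 hours. Here, GI50 denotes the concentration required for 50% inhibition of growth.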 The source made the active and inactive calls. No stated cut-off is given here; in the data, active = GI50 up to about 1.1 µM and inactive = higher. Non-standard residues stand in square brackets, D forms with d. Square brackets hold non-standard residues; d marks the D form. Residues, ends and D or L forms follow the SMILES beside them. Peptide text beside a SMILES is read from it. * marks the point of attachment. *: point of attachment. X26 = COC1=CC(=O)N(C(=O)[C@@H](O*)C(C)C)[C@H]1Cc1ccccc1; NMeF = CN[CH](Cc1ccccc1)C(=O)O; NMeV = CN[CH](C(=O)O)C(C)C; Hexanoyl = CCCCCC(=O)*; Boc = CC(C)(C)OC(=O)*

Assays:
Experiment in all cases: DTP human tumour cell line panel, 48 h
[1] = tested on: DLD-1
[2] = tested on: DMS-114
[3] = tested on: DMS-273
[4] = tested on: SNB-78
[5] = tested on: BT-549
[6] = tested on: RXF 631
[7] = tested on: XF498
[8] = tested on: HOP-18
[9] = tested on: KM-20L2

With C=C1C(=O)OC2C1CC[C@H](C)C13OC(=O)CC1[C@@]23C (some centres not stated) the GI50 [1] was > 100 µM (inactive), the GI50 [2] was > 100 µM (inactive) and the GI50 [3] was > 100 µM (inactive). For the same molecule, the GI50 [4] was > 100 µM (inactive).
For Cc1cnc2[nH]c(-c3ccccc3)cc(=O)c2c1, the GI50 [5] was 0.0306 µM (active).
In the case of C=CCN1C[C@H](C)N([C@@H](c2ccc(C(=O)N3CCCCC3)cc2)c2cccc(OC)c2)C[C@H]1C, the GI50 [5] is reported as 32.9 µM (inactive).
With CCC1C(C)c2c([nH]c3ccccc23)C2C(=O)N(c3ccccc3)C(=O)C21 (configuration not stated) the GI50 [1] was 10.6 µM (inactive), the GI50 [2] was 13.4 µM (inactive) and the GI50 [3] was 17.8 µM (inactive). For the same molecule, the GI50 [6] was 13.5 µM (inactive), the GI50 [4] was 19.2 µM (inactive) and the GI50 [7] was 21.5 µM (inactive).
In the case of C=CN1CCN(c2ccccc2)P1(=O)Oc1ccccc1 (configuration not stated), the GI50 [5] is reported as > 100 µM (inactive).
For CC1=N[C@@](C)(C2CC3C=CC2C3=O)COC1=O (some centres not stated), the GI50 [5] was > 100 µM (inactive).
Cc1cnc2sn(-c3ccc(Oc4ccccc4)cc3)c(=O)c2c1 was tested, and the GI50 [5] was 23.8 µM (inactive).
For Cc1ccc(NC(=O)C(=O)CC(=O)c2ccccc2)cc1C, the GI50 [1] was > 100 µM (inactive), the GI50 [2] was 86.9 µM (inactive) and the GI50 [3] was 56.8 µM (inactive). For the same molecule, the GI50 [8] was > 100 µM (inactive), the GI50 [9] was > 100 µM (inactive) and the GI50 [4] was > 100 µM (inactive). The GI50 [7] was > 100 µM (inactive).
COc1cc(S(=O)(=O)N/N=C/c2cc(Br)c(O)c(OC)c2)c(OC)cc1NC(C)=O was tested, and the GI50 [5] was > 100 µM (inactive).
In the case of CC1C2C=C(O)C(=O)C(C2=O)C1c1ccccc1 (configuration not stated), the GI50 [1] is reported as > 100 µM (inactive), the GI50 [3] is reported as > 100 µM (inactive) and the GI50 [9] is reported as 38.6 µM (inactive). The GI50 [6] was > 100 µM (inactive) and the GI50 [4] was 87.5 µM (inactive).
With O=S(=O)(CC1=NC2C=CC=CC2N=C1)NCc1ccccc1 (configuration not stated) the GI50 [1] was > 100 µM (inactive), the GI50 [3] was > 100 µM (inactive) and the GI50 [8] was > 100 µM (inactive). For the same molecule, the GI50 [9] was > 100 µM (inactive) and the GI50 [7] was 24.3 µM (inactive).
In the case of CC(=O)C1(O)CC2(c3ccccc3)C(=O)C1(c1ccccc1)C(c1ccccc1)=C2c1ccccc1 (configuration not stated), the GI50 [1] is reported as > 100 µM (inactive), the GI50 [2] is reported as 10.9 µM (inactive) and the GI50 [3] is reported as 44.3 µM (inactive). The GI50 [9] was > 100 µM (inactive), the GI50 [6] was 89.1 µM (inactive) and the GI50 [4] was > 100 µM (inactive). The GI50 [7] was 6.24 µM (inactive).
With COc1ccc(-c2csc(Cc3nc4ccccc4c(=O)n3-c3ccc(Cl)cc3)n2)cc1 the GI50 [5] was 45 µM (inactive).
CN(C)c1ccc(/C=c2/c3ccccc3n3c2cc(C24CC5CC(CC(C5)C2)C4)[n+]3C)cc1 was tested, and the GI50 [5] was 0.245 µM (active).
In the case of O=C(NCCCCN(CCCNC(=O)C(F)(F)F)Cc1ccccc1)C(F)(F)F, the GI50 [5] is reported as > 100 µM (inactive).
With CC(C)c1cc2c(cc1S(=O)(=O)O)[C@@]1(C)CCC[C@@](C)(C(=O)O)C1CC2 (some centres not stated) the GI50 [5] was > 100 µM (inactive).
With CC(C)c1cc(C(C)C)c(S(=O)(=O)N=[N+]=[N-])c(C(C)C)c1 the GI50 [1] was > 100 µM (inactive), the GI50 [3] was 94 µM (inactive) and the GI50 [9] was > 100 µM (inactive). For the same molecule, the GI50 [6] was 59.8 µM (inactive) and the GI50 [7] was > 100 µM (inactive).
CC(CC=O)Nc1nn2c(=O)c3ccccc3nc2s1 (configuration not stated) was tested, and the GI50 [5] was > 100 µM (inactive).
With Nc1ccccc1/N=N/c1c(S(=O)(=O)O)cc2cc(S(=O)(=O)O)cc(O)c2c1O the GI50 [5] was > 100 µM (inactive).
With CC1=CC(=O)N2C(OC[C@@H]2c2ccccc2)O1 (some centres not stated) the GI50 [1] was > 100 µM (inactive), the GI50 [8] was 20.7 µM (inactive) and the GI50 [9] was > 100 µM (inactive). The GI50 [7] was > 100 µM (inactive).
With Cl/C(=C\C=N\c1ccc(I)cc1)c1ccc2ccccc2c1 the GI50 [5] was 16.9 µM (inactive).
For CC(C)C(NC(=O)OC(C)(C)C)C(=O)N(C)C(Cc1ccccc1)C(=O)N(C)C(C(=O)O)C(C)C (stereo not drawn) (Boc-Val-[NMeF]-[NMeV]-OH; configuration not given here), the GI50 [2] was > 100 µM (inactive), the GI50 [3] was > 100 µM (inactive) and the GI50 [9] was > 100 µM (inactive). For the same molecule, the GI50 [7] was > 100 µM (inactive).
In the case of c1cc2ccc1C1NCCCN1CCN1CCCNC1c1ccc(cc1)C1NCCCN1CCN1CCCNC21 (configuration not stated), the GI50 [1] is reported as > 100 µM (inactive), the GI50 [2] is reported as > 100 µM (inactive) and the GI50 [3] is reported as > 100 µM (inactive). The GI50 [8] was > 100 µM (inactive), the GI50 [9] was > 100 µM (inactive) and the GI50 [7] was > 100 µM (inactive).
With CC(C)CCC[C@@H](C)[C@H]1CCC2C3CC=C4C[C@@H](Oc5c6ccccc6nc6ccccc56)CCC4C3CCC21 (some centres not stated) the GI50 [5] was > 50 µM (inactive).
CCOC(=O)c1c(-c2[nH]c(C(=O)OCc3ccccc3)c(C)c2C(=O)OCC)[nH]c(C(=O)OCc2ccccc2)c1C was tested, and the GI50 [1] was > 100 µM (inactive), the GI50 [2] was > 100 µM (inactive) and the GI50 [3] was > 100 µM (inactive). For the same molecule, the GI50 [8] was > 100 µM (inactive), the GI50 [9] was > 100 µM (inactive) and the GI50 [4] was 67 µM (inactive).
With c1ccc(CCCCNCc2cc(CNCCCCc3ccccc3)cc(CNCCCCc3ccccc3)c2)cc1 the GI50 [5] was 1.63 µM (inactive).
CCCCCC(=O)N[C@H](C(=O)N[C@H](C(=O)N(C)[C@H](C(=O)N1CCC[C@H]1C(=O)N1CCC[C@H]1C(=O)O[C@H](C(=O)N1C(=O)C=C(OC)[C@@H]1Cc1ccccc1)C(C)C)C(C)C)C(C)C)C(C)C (Hexanoyl-VV[NMeV]PP-X26) was tested, and the GI50 [5] was 59.8 µM (inactive).
In the case of COC[C@@H](/N=C/c1ccc(OC)cc1)C(C)C, the GI50 [5] is reported as > 100 µM (inactive).
COc1ccc2c(C)cc(N/N=C/c3ccc(C)s3)nc2c1 was tested, and the GI50 [5] was 24.3 µM (inactive).
For Cc1cc(C)cc(Nc2cc(O)nc(O)n2)c1, the GI50 [5] was > 100 µM (inactive).
For Cc1ccc(S(=O)(=O)NC(=O)NC(Cc2c[nH]c3ccccc23)C(=O)O)cc1 (configuration not stated), the GI50 [5] was > 100 µM (inactive).
With N#Cc1ccc(/N=N/N2CCCC2)cc1 the GI50 [5] was > 100 µM (inactive).
CC(N)/C(N)=N/O (configuration not stated) was tested, and the GI50 [5] was > 100 µM (inactive).
In the case of Cc1cccc2sc(NC(=O)c3cc([N+](=O)[O-])ccc3Cl)nc12, the GI50 [5] is reported as 2.44 µM (inactive).
